One data set can be described thus: physchem. The settings on record: organic solvent or mixture, thermodynamic from solid.

Converted amounts (≈) assume the structure as drawn. Like-named read-outs stand apart in the source and are kept apart here.

By solubility is commonly meant the dissolved amount per volume that the medium holds.

As for `CC(=O)Oc1ccccc1C(=O)O` [Acetylsalicylic acid], the solubility in “physchem” (Solubility (class)) was in the range of 30 to 100 mg/mL (≈ 167 to 555 mM).
Consider `O=C(O)c1cc(=O)c2c(OCC(O)COc3cccc4oc(C(=O)O)cc(=O)c34)cccc2o1` [Cromolyn sodium], for which the solubility in “physchem” (Solubility (class)) was 30 to 100 mg/mL.
For `OC(Cn1cncn1)(Cn1cncn1)c1ccc(F)cc1F` [Fluconazole], the solubility in the data set “physchem” (Solubility (class), solvent PEG 300) was 30 to 100 mg/mL (≈ 98 to 327 mM); in “physchem” (Solubility, solvent 70:30 (v/v) DMSO:NMP) it was 850 mg/mL (≈ 2780 mM); in “physchem” (Solubility, solvent Benzyl Benzoate), 5 mg/mL (≈ 16.3 mM); in the data set “physchem” (Solubility, solvent DMSO), 900 mg/mL (≈ 2940 mM); in the data set “physchem” (Solubility, solvent NMP), 800 mg/mL (≈ 2610 mM); in the data set “physchem” (Solubility, solvent PEG 300), 50 mg/mL (≈ 163 mM). Besides, in “physchem” (Solubility, solvent Triacetin), the solubility came to 5 mg/mL (≈ 16.3 mM). In addition, the “Solubility (class)” value reads like this: (solvent 70:30 (v/v) DMSO:NMP) “Freely soluble”; (solvent Benzyl Benzoate) “Slightly soluble”; (solvent DMSO) “Freely soluble”; (solvent NMP) “Freely soluble”; (solvent Triacetin) “Slightly soluble”.
On to `CO[C@H]1/C=C/O[C@@]2(C)Oc3c(C)c(O)c4c(O)c(c(/C=N/N5CCN(C)CC5)c(O)c4c3C2=O)NC(=O)/C(C)=C\C=C\[C@H](C)[C@H](O)[C@@H](C)[C@@H](O)[C@@H](C)[C@H](OC(C)=O)[C@@H]1C` [Rifampicin], for which the solubility in “physchem” (Solubility (class)) lay in the range of 30 to 100 mg/mL (≈ 36.5 to 122 mM).
As for `NC[C@H]1O[C@H](O[C@H]2[C@H](O)[C@@H](O[C@H]3O[C@H](CO)[C@@H](O)[C@H](N)[C@H]3O)[C@H](N)C[C@@H]2N)[C@H](N)C[C@@H]1O` [Tobramycin], the solubility in “physchem” (Solubility) was < 0.1 mg/mL.
As to Albuterol sulfate, the “Solubility (class)” value is given as “Slightly soluble” (solvent 70:30 (v/v) DMSO:NMP); “Practically insoluble” (solvent Benzyl Benzoate); “Slightly soluble” (solvent DMSO); “Practically insoluble” (solvent NMP); “Practically insoluble” (solvent PEG 300); “Practically insoluble” (solvent Triacetin). The solubility by setting is: (solvent 70:30 (v/v) DMSO:NMP) 5 mg/mL; (solvent Benzyl Benzoate) <0.1 mg/mL; (solvent DMSO) 5 mg/mL; (solvent NMP) <0.1 mg/mL; (solvent PEG 300) <0.1 mg/mL; (solvent Triacetin) <0.1 mg/mL.
